Molecules are shown by their SMILES. Where two headings read alike, the source gives them in different places.

This is an account of results in patent US20150258082A1, “COMBINATION THERAPY WITH GLUTAMINASE INHIBITORS” (priority 2014, published 2015).

Experiment [1] addresses T1, recombinant form of Glutaminase 1 (GAC) (Homo sapiens, UniProt O94925).
T1 sequence (O94925 137-598 isoform O94925-3 limits assumed): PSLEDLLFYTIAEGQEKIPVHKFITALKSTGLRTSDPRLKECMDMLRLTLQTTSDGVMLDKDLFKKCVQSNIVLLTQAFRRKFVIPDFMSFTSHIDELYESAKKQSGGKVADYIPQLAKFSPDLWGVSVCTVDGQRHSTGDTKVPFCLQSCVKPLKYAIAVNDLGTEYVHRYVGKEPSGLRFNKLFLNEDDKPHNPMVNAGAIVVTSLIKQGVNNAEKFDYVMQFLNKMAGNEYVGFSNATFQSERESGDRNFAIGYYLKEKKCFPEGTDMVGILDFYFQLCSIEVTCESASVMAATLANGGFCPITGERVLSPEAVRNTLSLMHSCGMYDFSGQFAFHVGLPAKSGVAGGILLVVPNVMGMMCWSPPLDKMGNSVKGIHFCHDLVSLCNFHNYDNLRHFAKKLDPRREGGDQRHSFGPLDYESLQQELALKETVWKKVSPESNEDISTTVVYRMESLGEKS
The experiment can be described thus: Recombinant Enzyme Assay (no preincubation). It is filed as biochemical. The following applies: read-out: GAC Delta N2 IC50 no preinc.
Experimental: Compounds were assessed for their ability to inhibit the enzymatic activity of a recombinant form of Glutaminase 1 (GAC) using a biochemical assay that couples the production of glutamate (liberated by GAC) to glutamate dehydrogenase (GDH) and measuring the change in absorbance for the reduction of NAD^+ to NADH. […] Enzymatic reaction was started with the addition of 50 μL of enzyme solution (50 mM Tris-HCl pH 8.0, 0.2 mM EDTA, 150 mM K2HPO4, 0.1 mg/ml BSA, 1 mM DTT, 10 ppm antifoam, 4 units/ml GDH, 4 mM adenosine diphosphate, and 4 nM GAC) and read in a Molecular Devices M5 plate reader at 20° C. The plate reader was configured to read absorbance (λ=340 nm) in kinetic mode for 15 minutes. Data was recorded as milli-absorbance units per minute and slopes were compared to a control compound and a DMSO-only control on the same plate. Compounds with slopes less than the DMSO control were considered inhibitors and plate variability was assessed using the control compound.

The next experiment deals with P493-6 (myc "on") cells. Briefly: Cell Proliferation Assay, P493-6 cells, 72 hrs. It is filed as cell-based. On the procedure:
For compound assay, P493-6 cells were plated in 96-well V-bottom plates on the day of compound addition in 50 μl of growth media at a cell density of 200,000 cells/ml (10,000 cells/well). Compounds were serially diluted in 100% DMSO at 200-times the final concentration. Compounds were diluted 100-fold into growth media and then 50 μl of this mixture was added to cell plates making the final concentration of DMSO 0.5%. Cells were incubated with compound for 72 hrs at 37° C. with 5% CO2 and analyzed for antiproliferative effects either by Cell Titer Glo (Promega) or FACS analysis using the Viacount (Millipore) kit on the Guava instrument.

In a further experiment the test system is RPMI-8226 cells. The experiment can be described thus: Anti-proliferative activity in multiple myeloma cell line RPMI-8226 (Cell Titer Glo, 72 hrs). It is filed as cell-based. On the procedure:
Multiple myeloma cell lines RPMI-8226 and MM1S were seeded in 96-well plates at a density of 10,000 cells/well. […] Cells were incubated for 72 hrs at 37° C. with 5% CO2 and analyzed for antiproliferative effects by Cell Titer Glo (Promega). Cell proliferation (% of DMSO control) was determined by comparing the Cell Titer Glo signal (rfu) of compound 670-, lenalidomide-, or pomalidomide-treated cells versus DMSO treated cells. Cell viability (% DMSO of control) was plotted against compound concentration and resulting curves were fit using a four-parameter dose response to determine IC50 values.

The target in experiment [2] is T1, recombinant form of Glutaminase 1 (GAC). Briefly: Recombinant Enzyme Assay - Time Dependence (60 min preincubation). The format is biochemical. On the procedure: The enzyme/compound mix was sealed with sealing foil (USA Scientific) and allowed to incubate, with mild agitation, for 60 minutes at 20° C. Enzymatic reaction was started with the addition of 50 μL of substrate solution (50 mM Tris-HCl pH 8.0, 0.2 mM EDTA, 150 mM K2HPO4, 0.1 mg/ml BSA, 1 mM DTT, 20 mM L-glutamine, 2 mM NAD^+, and 10 ppm antifoam) and read in a Molecular Devices M5 plate reader at 20° C. The plate reader was configured to read absorbance (λ=340 nm) in kinetic mode for 15 minutes. Data was recorded as milli-absorbance units per minute and slopes were compared to a control compound and a DMSO-only control on the same plate. Compounds with slopes less than the DMSO control were considered inhibitors and plate variability was assessed using the control compound.

Experiment [3] has as its system RPMI-8226 multiple myeloma xenograft. The experiment can be described thus: Multiple myeloma xenograft study, compound 670 and lenalidomide. To be noted: compound 670 200 mg/kg oral BID + lenalidomide 30 mg/kg oral QD, 24 days; P<0.0001 vs vehicle and lenalidomide alone, P<0.01 vs CB-839 alone. It is filed as in vivo, mice. Here is the method: Female scid/beige mice (n=40) age 7-8 weeks were implanted subcutaneously with 3×10^7 RPMI-8226 multiple myeloma cells per mouse mixed 1:1 with Matrigel. […] Tumors were measured with calipers three times per week and tumor volume calculated using the formula tumor volume (mm^3)=(a×b^2/2) where ‘b’ is the smallest diameter and ‘a’ is the largest perpendicular diameter. ****P-value<0.0001 (One-way ANOVA vs. vehicle and vs. Lenalidomide alone) **P-value<0.01 (One-way ANOVA vs. CB-839 alone).

Experiment [4] concerns MM1S cells and RPMI-8226 cells. Briefly: Combination of compound 670 with pomalidomide or lenalidomide, cell survival and combination index. The format is cell-based. To be noted: 72 hours; cells resistant to pomalidomide or lenalidomide or not; combination index by Calcusyn. Here is the method: At the end of the incubation, cell viability was measured using Cell Titer Glo as per manufacturer's protocol (Promega, Madison, Wis.). Measured values for compound-treated cells were normalized to DMSO-treated cells and data is reported as a cell survival ratio with a value of 1 (one) corresponding to maximum cell survival and a value of 0 (zero) corresponding to no cell survival. Cell survival ratios for all compound treatments are represented as bar graphs. Combination indices were calculated using the Calcusyn program (biosoft.com) and reported for individual mixtures of compound 670 and either pomalidomide or lenalidomide. Compound mixtures that produced a synergistic anti-tumor activity are highlighted.

The test system of experiment [5] is RPMI-8226 multiple myeloma xenograft. Briefly: Multiple myeloma xenograft study with CB-839, pomalidomide and combination. It is filed as in vivo, mice. The following applies: CB-839 200 mg/kg oral BID + pomalidomide 1 mg/kg oral QD; P<0.01. Here is the method: Female scid/beige mice (age 7-9 weeks) were implanted subcutaneously with 1×10^7 RPMI-8226 myeloma cells mixed 1:1 with matrigel. Tumors were measured with calipers three times per week and tumor volume calculated using the formula tumor volume (mm^3)=(a×b^2/2) where ‘b’ is the smallest diameter and ‘a’ is the largest perpendicular diameter.

Setting [6] is: P493-6, 72 h, read-out: Cell prolif P493 72h IC50, P493 cells, 72h.

With `O=C(Cc1cccc(F)c1)Nc1nnc(CCCCc2nnc(NC(=O)C[C@@H](O)C(=O)O)s2)s1` [compound 153], the IC50 is 1 µM in experiment [1] and greater than 50000 nM with P493-6 (myc "on") cells (setting [6]).
Take `O=C(Cc1ccc(Cl)c(CC(F)(F)F)c1)Nc1ccc(CCCCc2nnc(NC(=O)Cc3ccccn3)s2)nn1` [compound 721]: the IC50 in the experiment on P493-6 (myc "on") cells (P493-6, 72 h, read-out: Cell prolif P493 72h IC50, P493-6 cells, 72 h) came to 22 nM.
As to `Nc1cccc2c1C(=O)N(C1CCC(=O)NC1=O)C2=O` (centres unmarked) [pomalidomide], the “sensitivity of RPMI-8226 myeloma cells to the agent” value in the experiment on RPMI-8226 cells is “resistant”.
With `CCOc1ccc(C(O)C(=O)Nc2nnc(CCCCc3ccc(NC(=O)Cc4ccccc4)nn3)s2)cc1` (centres unmarked) [compound 558], in the experiment on P493-6 (myc "on") cells (setting [6]), the IC50 came to 28 nM.
On to `Nc1cccc2c1CN(C1CCC(=O)NC1=O)C2=O` (centres unmarked) [lenalidomide], for which the “sensitivity of RPMI-8226 myeloma cells to the agent” value in the experiment on RPMI-8226 cells is “resistant”.
Regarding `O=C(Nc1nnc(CCSCCc2nnc(NC(=O)C(c3ccccc3)N3CCNCC3)s2)s1)C(c1ccccc1)N1CCNCC1` (centres unmarked) [compound 79], the IC50 in the experiment on P493-6 (myc "on") cells (setting [6]) stood at 20000 nM.
Still for that read-out and setting: in the case of `O=C(COC(C(=O)Nc1nnc(CCCCc2nnc(NC(=O)C(COC(=O)C3CCN(C(=O)OCc4ccccc4)CC3)c3ccccc3)s2)s1)c1ccccc1)C1CCN(C(=O)OCc2ccccc2)CC1` (centres unmarked) [compound 301] it was 230 nM.
As to `O=C(COC(C(=O)Nc1nnc(CCCCc2nnc(NC(=O)C(COC(=O)C3CCNCC3)c3ccccc3)s2)s1)c1ccccc1)C1CCNCC1` (centres unmarked) [compound 302], the IC50 stood at 7 µM in experiment [1] and 870 nM in the experiment with P493-6 (myc "on") cells (setting [6]).
Regarding `O=C(Nc1nnc(CCCCc2nnc(NC(=O)[C@@H]3CC3c3ccccc3)s2)s1)C1C[C@H]1c1ccccc1` (some centres unmarked) [compound 90], in experiment [1], the IC50 was greater than 20 µM.
For the compound `C=C(C(=O)Nc1nnc(CCCCc2nnc(NC(=O)C(COC(=O)CCN3CCOCC3)c3ccccc3)s2)s1)c1ccccc1` (centres unmarked) [compound 281], in the experiment with P493-6 (myc "on") cells (setting [6]), the IC50 came out at 660 nM.
`COC(=O)NCC1=CC(CC(=O)Nc2ccc(CCCCc3nnc(NC(=O)Cc4cccc(CNC(=O)OC)c4)s3)nn2)=CCC1` [compound 573]: the IC50 came out at 4 nM in experiment [2] and 15 nM with P493-6 (myc "on") cells (setting [6]).
As for `O=C(Cc1cccc(OC(F)(F)F)c1)Nc1ccc(CCCCc2nnc(NC(=O)Cc3ccccn3)s2)nn1` [compound 670], in the experiment with P493-6 (myc "on") cells (read-out: Cell prolif P493 72h IC50, P493 cells, 72h), the IC50 came out at 30 nM. Also, the “reduction in tumor size, combination with lenalidomide vs either agent alone” value in experiment [3] is reported as “greater reduction in tumor size”. Further, in experiment [4], the “combination effect with lenalidomide in multiple myeloma cells” value was “synergizes” and the “combination effect with pomalidomide in multiple myeloma cells” value is “synergizes”. In addition, in experiment [5], the “reduction in tumor size, combination with pomalidomide vs either agent alone” value is given as “greater reduction in tumor size”.
As to `O=C(OCCCN1CCOCC1)OCN(C(=O)Cc1ccccc1)c1nnc(CCSCCc2nnc(N(COC(=O)OCCCN3CCOCC3)C(=O)Cc3ccccc3)s2)s1` [compound 28], the IC50 in the experiment with P493-6 (myc "on") cells (setting [6]) is 1000 nM.
